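Cells were grown in 96-well plates and exposed to each compound for 48 hours at five concentrations; endpoints were interpolated linearly between bracketing concentrations, or set to the highest concentration if not reached. At the TGI there is no net growth.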
Legend:
Assay in all cases: NCI tumour cell line growth inhibition, 48 h
786-0 renal = system: 786-0 renal
A498 renal = system: A498 renal
A549 NSCLC = system: A549 NSCLC
ACHN renal = system: ACHN renal
BT-549 breast = system: BT-549 breast
CAKI-1 renal = system: CAKI-1 renal
CCRF-CEM leukemia = system: CCRF-CEM leukemia
COLO 205 colon = system: COLO 205 colon
DLD-1 colon = system: DLD-1 colon
DMS 114 small cell lung = system: DMS 114 small cell lung
DMS 273 small cell lung = system: DMS 273 small cell lung
DU-145 prostate = system: DU-145 prostate
EKVX NSCLC = system: EKVX NSCLC
HCC-2998 colon = system: HCC-2998 colon
HCT-116 colon = system: HCT-116 colon
HCT-15 colon = system: HCT-15 colon
HL-60(TB) leukemia = system: HL-60(TB) leukemia
HOP-18 NSCLC = system: HOP-18 NSCLC
HOP-62 NSCLC = system: HOP-62 NSCLC
HOP-92 NSCLC = system: HOP-92 NSCLC
HS 578T breast = system: HS 578T breast
HT29 colon = system: HT29 colon
IGROV1 ovarian = system: IGROV1 ovarian
K-562 leukemia = system: K-562 leukemia
KM12 colon = system: KM12 colon
KM20L2 colon = system: KM20L2 colon
LOX IMVI melanoma = system: LOX IMVI melanoma
LXFL 529 NSCLC = system: LXFL 529 NSCLC
M14 melanoma = system: M14 melanoma
M19-MEL melanoma = system: M19-MEL melanoma
MALME-3M melanoma = system: MALME-3M melanoma
MCF7 breast = system: MCF7 breast
MDA-MB-231 breast = system: MDA-MB-231 breast
MDA-MB-435 = system: MDA-MB-435
MDA-N = system: MDA-N
MOLT-4 leukemia = system: MOLT-4 leukemia
NCI-H226 lung = system: NCI-H226 lung
NCI-H23 lung = system: NCI-H23 lung
NCI-H460 lung = system: NCI-H460 lung
NCI-H522 lung = system: NCI-H522 lung
NCI/ADR-RES ovarian = system: NCI/ADR-RES ovarian
OVCAR-3 ovarian = system: OVCAR-3 ovarian
OVCAR-4 ovarian = system: OVCAR-4 ovarian
OVCAR-5 ovarian = system: OVCAR-5 ovarian
OVCAR-8 ovarian = system: OVCAR-8 ovarian
PC-3 prostate = system: PC-3 prostate
RPMI-8226 leukemia = system: RPMI-8226 leukemia
RXF 393 renal = system: RXF 393 renal
RXF-631 renal = system: RXF-631 renal
SF-268 CNS = system: SF-268 CNS
SF-295 CNS = system: SF-295 CNS
SF-539 CNS = system: SF-539 CNS
SK-MEL-2 melanoma = system: SK-MEL-2 melanoma
SK-MEL-28 melanoma = system: SK-MEL-28 melanoma
SK-MEL-5 melanoma = system: SK-MEL-5 melanoma
SK-OV-3 ovarian = system: SK-OV-3 ovarian
SN12C renal = system: SN12C renal
SNB-19 CNS = system: SNB-19 CNS
SNB-75 CNS = system: SNB-75 CNS
SNB-78 CNS = system: SNB-78 CNS
SR leukemia = system: SR leukemia
SW-620 colon = system: SW-620 colon
T-47D breast = system: T-47D breast
TK-10 renal = system: TK-10 renal
U251 CNS = system: U251 CNS
UACC-257 melanoma = system: UACC-257 melanoma
UACC-62 melanoma = system: UACC-62 melanoma
UO-31 renal = system: UO-31 renal
XF 498 CNS = system: XF 498 CNS
P388 leukemia = system: P388 leukemia
P388/ADR leukemia = system: P388/ADR leukemia
SN12K1 renal = system: SN12K1 renal

`Nc1ncnc2c1ncn2C1C=C(CO)C(O)C1O` (configuration not stated) was tested, and the TGI (786-0 renal) was > 100 µM, the TGI (A498 renal) was 43.5 µM and the TGI (A549 NSCLC) was > 100 µM. The TGI (ACHN renal) was 66.9 µM, the TGI (BT-549 breast) was > 100 µM and the TGI (CAKI-1 renal) was > 93.6 µM. The TGI (CCRF-CEM leukemia) was 14 µM, the TGI (COLO 205 colon) was 19.5 µM and the TGI (DLD-1 colon) was > 100 µM. The TGI (DMS 114 small cell lung) was 69.2 µM, the TGI (DMS 273 small cell lung) was 28.3 µM and the TGI (DU-145 prostate) was 35.8 µM. The TGI (EKVX NSCLC) was > 100 µM, the TGI (HCC-2998 colon) was > 77.3 µM and the TGI (HCT-116 colon) was 12.6 µM. For the same compound, the TGI (HCT-15 colon) was > 53.7 µM, the TGI (HL-60(TB) leukemia) was 2.73 µM and the TGI (HOP-18 NSCLC) was > 100 µM. For the same compound, the TGI (HOP-62 NSCLC) was > 100 µM, the TGI (HOP-92 NSCLC) was > 76.1 µM and the TGI (HS 578T breast) was > 100 µM. For the same compound, the TGI (HT29 colon) was > 100 µM, the TGI (IGROV1 ovarian) was > 54.3 µM and the TGI (K-562 leukemia) was 39.6 µM. For the same compound, the TGI (KM12 colon) was > 100 µM, the TGI (KM20L2 colon) was > 100 µM and the TGI (LOX IMVI melanoma) was 45.4 µM. For the same compound, the TGI (LXFL 529 NSCLC) was > 100 µM, the TGI (M14 melanoma) was > 100 µM and the TGI (M19-MEL melanoma) was > 100 µM. For the same compound, the TGI (MALME-3M melanoma) was > 100 µM, the TGI (MCF7 breast) was > 100 µM and the TGI (MDA-MB-231 breast) was 52.5 µM. For the same compound, the TGI (MDA-MB-435) was > 100 µM, the TGI (MDA-N) was > 100 µM and the TGI (MOLT-4 leukemia) was 30.9 µM. The TGI (NCI-H226 lung) was > 100 µM, the TGI (NCI-H23 lung) was 35.4 µM and the TGI (NCI-H460 lung) was 34.8 µM. The TGI (NCI-H522 lung) was 35.6 µM, the TGI (NCI/ADR-RES ovarian) was 74.8 µM and the TGI (OVCAR-3 ovarian) was > 85.2 µM. The TGI (OVCAR-4 ovarian) was > 56.8 µM, the TGI (OVCAR-5 ovarian) was > 100 µM and the TGI (OVCAR-8 ovarian) was > 100 µM. The TGI (PC-3 prostate) was 60.5 µM, the TGI (RPMI-8226 leukemia) was > 37 µM and the TGI (RXF 393 renal) was 42.8 µM. The TGI (RXF-631 renal) was 30 µM, the TGI (SF-268 CNS) was > 100 µM and the TGI (SF-295 CNS) was > 100 µM. The TGI (SF-539 CNS) was > 91.1 µM, the TGI (SK-MEL-2 melanoma) was > 80.4 µM and the TGI (SK-MEL-28 melanoma) was > 100 µM. The TGI (SK-MEL-5 melanoma) was > 100 µM, the TGI (SK-OV-3 ovarian) was 44.2 µM and the TGI (SN12C renal) was > 100 µM. The TGI (SNB-19 CNS) was > 100 µM, the TGI (SNB-75 CNS) was 48.9 µM and the TGI (SNB-78 CNS) was > 100 µM. For the same compound, the TGI (SR leukemia) was 3.24 µM, the TGI (SW-620 colon) was > 86.8 µM and the TGI (T-47D breast) was 10.2 µM. The TGI (TK-10 renal) was > 84.9 µM, the TGI (U251 CNS) was > 100 µM and the TGI (UACC-257 melanoma) was > 100 µM. The TGI (UACC-62 melanoma) was > 57.5 µM, the TGI (UO-31 renal) was 19.9 µM and the TGI (XF 498 CNS) was > 100 µM.

`O=C(O)CCC1CCc2cccc(O)c2C1=O` (configuration not stated) was tested, and the TGI (A498 renal) was > 100 µM, the TGI (ACHN renal) was > 100 µM and the TGI (CCRF-CEM leukemia) was > 100 µM. The TGI (COLO 205 colon) was > 100 µM, the TGI (DMS 114 small cell lung) was > 100 µM and the TGI (DMS 273 small cell lung) was > 100 µM. For the same compound, the TGI (HCT-15 colon) was > 100 µM, the TGI (HL-60(TB) leukemia) was > 100 µM and the TGI (HOP-18 NSCLC) was > 100 µM. For the same compound, the TGI (HOP-92 NSCLC) was > 100 µM, the TGI (IGROV1 ovarian) was > 100 µM and the TGI (K-562 leukemia) was > 100 µM. The TGI (KM20L2 colon) was > 100 µM, the TGI (LOX IMVI melanoma) was > 100 µM and the TGI (LXFL 529 NSCLC) was > 100 µM. The TGI (M14 melanoma) was > 100 µM, the TGI (M19-MEL melanoma) was > 100 µM and the TGI (MOLT-4 leukemia) was > 100 µM. The TGI (NCI-H23 lung) was > 100 µM, the TGI (NCI-H460 lung) was > 100 µM and the TGI (OVCAR-4 ovarian) was > 100 µM. For the same compound, the TGI (RPMI-8226 leukemia) was > 100 µM, the TGI (RXF 393 renal) was > 100 µM and the TGI (RXF-631 renal) was > 100 µM. The TGI (SF-539 CNS) was > 100 µM, the TGI (SK-MEL-28 melanoma) was > 100 µM and the TGI (SK-OV-3 ovarian) was > 100 µM. The TGI (SN12C renal) was > 100 µM, the TGI (SNB-19 CNS) was > 100 µM and the TGI (SNB-78 CNS) was > 100 µM. The TGI (U251 CNS) was > 100 µM, the TGI (UACC-62 melanoma) was > 100 µM and the TGI (XF 498 CNS) was > 100 µM.

For `O=C1C=C(C2OC(CO)C(O)C2O)C(=O)N1` (configuration not stated), the TGI (A498 renal) was > 100 µM, the TGI (A549 NSCLC) was > 100 µM and the TGI (CCRF-CEM leukemia) was > 89.5 µM. For the same compound, the TGI (COLO 205 colon) was > 100 µM, the TGI (DLD-1 colon) was > 100 µM and the TGI (DMS 114 small cell lung) was > 100 µM. The TGI (DMS 273 small cell lung) was > 100 µM, the TGI (EKVX NSCLC) was > 100 µM and the TGI (HCC-2998 colon) was > 100 µM. For the same compound, the TGI (HCT-116 colon) was > 100 µM, the TGI (HCT-15 colon) was > 100 µM and the TGI (HL-60(TB) leukemia) was > 100 µM. For the same compound, the TGI (HOP-18 NSCLC) was > 100 µM, the TGI (HOP-62 NSCLC) was > 100 µM and the TGI (HOP-92 NSCLC) was > 100 µM. For the same compound, the TGI (HT29 colon) was > 100 µM, the TGI (IGROV1 ovarian) was > 100 µM and the TGI (K-562 leukemia) was > 100 µM. The TGI (KM12 colon) was > 100 µM, the TGI (KM20L2 colon) was > 100 µM and the TGI (LOX IMVI melanoma) was > 100 µM. The TGI (M19-MEL melanoma) was > 100 µM, the TGI (MALME-3M melanoma) was > 100 µM and the TGI (MCF7 breast) was > 100 µM. For the same compound, the TGI (MOLT-4 leukemia) was > 100 µM, the TGI (NCI-H226 lung) was > 100 µM and the TGI (NCI-H23 lung) was > 100 µM. The TGI (NCI-H460 lung) was > 100 µM, the TGI (NCI-H522 lung) was 38.5 µM and the TGI (NCI/ADR-RES ovarian) was > 100 µM. The TGI (OVCAR-3 ovarian) was > 100 µM, the TGI (OVCAR-4 ovarian) was > 100 µM and the TGI (OVCAR-5 ovarian) was > 100 µM. For the same compound, the TGI (OVCAR-8 ovarian) was > 100 µM, the TGI (P388 leukemia) was 60.9 µM and the TGI (P388/ADR leukemia) was 68.5 µM. The TGI (RPMI-8226 leukemia) was > 87.8 µM, the TGI (RXF 393 renal) was > 100 µM and the TGI (SF-268 CNS) was > 100 µM. The TGI (SF-295 CNS) was > 100 µM, the TGI (SF-539 CNS) was > 100 µM and the TGI (SK-MEL-2 melanoma) was > 100 µM. The TGI (SK-MEL-28 melanoma) was > 100 µM, the TGI (SK-MEL-5 melanoma) was > 100 µM and the TGI (SK-OV-3 ovarian) was > 100 µM. The TGI (SN12C renal) was > 100 µM, the TGI (SN12K1 renal) was > 100 µM and the TGI (SNB-19 CNS) was > 100 µM. For the same compound, the TGI (SNB-75 CNS) was > 100 µM, the TGI (SNB-78 CNS) was > 100 µM and the TGI (SW-620 colon) was > 100 µM. The TGI (U251 CNS) was > 100 µM, the TGI (UACC-257 melanoma) was > 100 µM and the TGI (UACC-62 melanoma) was > 100 µM. For the same compound, the TGI (UO-31 renal) was > 100 µM.

Reference: PubChem BioAssay (NCI)
